Measurements taken from PubChem BioAssay (NCI).
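Growth conditions: 96-well plates. Treatment: test compound, 48 hours, 5 concentrations. Analysis: linear interpolation between bracketing concentrations; unreached endpoints set to highest concentration. TGI: total growth inhibition.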

How the values were obtained:
Assay in all cases: NCI tumour cell line growth inhibition, 48 h
[1] = system: CCRF-CEM leukemia
[2] = system: NCI-H23 lung
[3] = system: A549 NSCLC
[4] = system: NCI-H226 lung
[5] = system: BT-549 breast
[6] = system: UO-31 renal
[7] = system: RPMI-8226 leukemia
[8] = system: ACHN renal
[9] = system: SNB-19 CNS
[10] = system: RXF 393 renal
[11] = system: CAKI-1 renal
[12] = system: U251 CNS
[13] = system: HS 578T breast
[14] = system: HCC-2998 colon
[15] = system: KM12 colon
[16] = system: HCT-116 colon
[17] = system: NCI-H460 lung
[18] = system: MDA-MB-435
[19] = system: SF-539 CNS
[20] = system: SN12C renal
[21] = system: MDA-N
[22] = system: OVCAR-5 ovarian
[23] = system: NCI/ADR-RES ovarian
[24] = system: UACC-62 melanoma
[25] = system: T-47D breast
[26] = system: SK-MEL-2 melanoma
[27] = system: HOP-62 NSCLC
[28] = system: LOX IMVI melanoma
[29] = system: MCF7 breast
[30] = system: MDA-MB-231 breast
[31] = system: OVCAR-8 ovarian
[32] = system: OVCAR-4 ovarian
[33] = system: MALME-3M melanoma
[34] = system: A498 renal
[35] = system: OVCAR-3 ovarian
[36] = system: SF-295 CNS
[37] = system: SF-268 CNS
[38] = system: EKVX NSCLC
[39] = system: SK-OV-3 ovarian
[40] = system: SW-620 colon
[41] = system: COLO 205 colon
[42] = system: 786-0 renal
[43] = system: HT29 colon
[44] = system: SK-MEL-28 melanoma
[45] = system: SNB-75 CNS
[46] = system: HCT-15 colon
[47] = system: DU-145 prostate
[48] = system: PC-3 prostate
[49] = system: M14 melanoma
[50] = system: UACC-257 melanoma
[51] = system: TK-10 renal
[52] = system: NCI-H522 lung
[53] = system: K-562 leukemia
[54] = system: IGROV1 ovarian
[55] = system: HOP-92 NSCLC
[56] = system: SK-MEL-5 melanoma
[57] = system: MOLT-4 leukemia
[58] = system: HL-60(TB) leukemia

O=[N+]([O-])/C(C(Cl)=C(Cl)Cl)=C(\Nc1cccc2ccccc12)n1nnc2ccccc21 gave a TGI [1] of over 100 µM, a TGI [2] of over 100 µM and a TGI [3] of over 100 µM. The TGI [4] was over 100 µM, the TGI [5] was 98.8 µM and the TGI [6] was over 100 µM. For the same molecule, the TGI [7] was over 100 µM, the TGI [8] was over 100 µM and the TGI [9] was over 100 µM. It also gave a TGI [10] of 79.3 µM, a TGI [11] of over 100 µM and a TGI [12] of over 100 µM. For the same molecule, the TGI [13] was 39.1 µM, the TGI [14] was over 100 µM and the TGI [15] was over 100 µM. The TGI [16] was over 100 µM, the TGI [17] was over 100 µM and the TGI [18] was over 100 µM. The TGI [19] was over 100 µM, the TGI [20] was over 100 µM and the TGI [21] was over 100 µM. The TGI [22] was over 100 µM, the TGI [23] was over 100 µM and the TGI [24] was over 100 µM. The TGI [25] was over 100 µM, the TGI [26] was over 100 µM and the TGI [27] was over 100 µM. For the same molecule, the TGI [28] was over 100 µM, the TGI [29] was over 100 µM and the TGI [30] was over 100 µM. It also gave a TGI [31] of over 100 µM, a TGI [32] of over 100 µM and a TGI [33] of over 100 µM. It also gave a TGI [34] of over 100 µM, a TGI [35] of over 100 µM and a TGI [36] of over 100 µM. It also gave a TGI [37] of over 100 µM, a TGI [38] of over 100 µM and a TGI [39] of over 100 µM. The TGI [40] was over 100 µM, the TGI [41] was 41 µM and the TGI [42] was over 100 µM. The TGI [43] was over 100 µM, the TGI [44] was over 100 µM and the TGI [45] was over 100 µM. For the same molecule, the TGI [46] was over 100 µM, the TGI [47] was over 100 µM and the TGI [48] was over 100 µM. The TGI [49] was over 100 µM and the TGI [50] was over 100 µM.
Molecule CCN(CC)CCn1ncc2c(N)ncnc21 has a TGI [1] of over 100 µM, a TGI [2] of over 100 µM and a TGI [3] of over 100 µM. The TGI [4] was over 100 µM, the TGI [5] was over 100 µM and the TGI [6] was over 100 µM. It also gave a TGI [51] of over 100 µM, a TGI [7] of over 100 µM and a TGI [8] of over 100 µM. The TGI [52] was over 100 µM, the TGI [9] was over 100 µM and the TGI [10] was over 100 µM. The TGI [11] was over 100 µM, the TGI [12] was over 100 µM and the TGI [13] was over 100 µM. The TGI [14] was over 100 µM, the TGI [15] was over 100 µM and the TGI [16] was over 100 µM. The TGI [17] was over 100 µM, the TGI [18] was over 100 µM and the TGI [20] was over 100 µM. For the same molecule, the TGI [21] was over 100 µM, the TGI [22] was over 100 µM and the TGI [23] was over 100 µM. For the same molecule, the TGI [24] was over 100 µM, the TGI [25] was over 100 µM and the TGI [26] was over 100 µM. For the same molecule, the TGI [27] was over 100 µM, the TGI [28] was over 100 µM and the TGI [29] was over 100 µM. The TGI [30] was over 100 µM, the TGI [53] was over 100 µM and the TGI [31] was over 100 µM. It also gave a TGI [32] of over 100 µM, a TGI [54] of over 100 µM and a TGI [33] of over 100 µM. It also gave a TGI [34] of over 100 µM, a TGI [35] of over 100 µM and a TGI [36] of over 100 µM. For the same molecule, the TGI [37] was over 100 µM, the TGI [38] was over 100 µM and the TGI [39] was over 100 µM. The TGI [40] was over 100 µM, the TGI [41] was over 100 µM and the TGI [55] was over 100 µM. For the same molecule, the TGI [56] was over 100 µM, the TGI [42] was over 100 µM and the TGI [43] was over 100 µM. It also gave a TGI [44] of over 100 µM, a TGI [46] of over 100 µM and a TGI [47] of over 100 µM. It also gave a TGI [57] of over 100 µM, a TGI [48] of over 100 µM and a TGI [49] of over 100 µM.
With N#Cc1c(=N)cc2c3ccccc3oc3c(C#N)c(N)[nH]c1c32 the TGI [1] was over 100 µM, the TGI [2] was over 100 µM and the TGI [3] was over 100 µM. It also gave a TGI [4] of over 100 µM, a TGI [5] of over 100 µM and a TGI [6] of over 100 µM. For the same molecule, the TGI [51] was over 100 µM, the TGI [7] was over 100 µM and the TGI [8] was over 100 µM. It also gave a TGI [9] of over 100 µM, a TGI [10] of over 100 µM and a TGI [11] of over 100 µM. For the same molecule, the TGI [12] was over 100 µM, the TGI [13] was over 100 µM and the TGI [14] was over 100 µM. For the same molecule, the TGI [15] was over 100 µM, the TGI [16] was over 100 µM and the TGI [17] was over 100 µM. For the same molecule, the TGI [18] was over 100 µM, the TGI [19] was over 100 µM and the TGI [20] was over 100 µM. For the same molecule, the TGI [21] was over 100 µM, the TGI [22] was over 100 µM and the TGI [23] was over 100 µM. For the same molecule, the TGI [24] was over 100 µM, the TGI [25] was over 100 µM and the TGI [26] was over 100 µM. For the same molecule, the TGI [27] was over 100 µM, the TGI [28] was over 100 µM and the TGI [29] was over 100 µM. For the same molecule, the TGI [30] was over 100 µM, the TGI [53] was over 100 µM and the TGI [31] was over 100 µM. It also gave a TGI [32] of over 100 µM, a TGI [54] of over 100 µM and a TGI [33] of over 100 µM. It also gave a TGI [34] of over 100 µM, a TGI [35] of over 100 µM and a TGI [36] of over 100 µM. It also gave a TGI [37] of over 100 µM, a TGI [38] of over 100 µM and a TGI [39] of over 100 µM. For the same molecule, the TGI [40] was over 100 µM, the TGI [41] was over 100 µM and the TGI [55] was over 100 µM. The TGI [56] was over 100 µM, the TGI [42] was over 100 µM and the TGI [43] was over 100 µM. The TGI [44] was over 100 µM, the TGI [45] was over 100 µM and the TGI [58] was over 100 µM. It also gave a TGI [46] of over 100 µM, a TGI [47] of over 100 µM and a TGI [57] of over 100 µM. For the same molecule, the TGI [48] was over 100 µM, the TGI [49] was over 100 µM and the TGI [50] was over 100 µM.
